Source: US9708314B2, “Heterocyclic amide compound” (NISSAN CHEMICAL INDUSTRIES, LTD., priority 2013, dated 2017)

Tests used:
Assay type in all cases: in vivo
Zea mays = assay: Test Example 4: effect on crop by application to foliage (diluvial soil, plastic box); conditions: application to foliage, application herbicide amount 320 g/ha
Method in brief: (§1)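 Scores run from 0 (herbicidal ratio ≤5%) to 5 (≥90%, almost fully withered) and were assessed three weeks after foliar spraying. Seedlings had been raised for 14 days at 25-30° C in sterilized diluvial soil before treatment, with the emulsion diluted in water to the stated g/ha dose.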

Glycine max = assay: as above; conditions: application to foliage, application herbicide amount 320 g/ha
Method in brief: as §1

[1] = tested on: directly sowed Oryza sativa; assay: as above; conditions: application to foliage, application herbicide amount 320 g/ha
Method in brief: as §1

Brassica campestris L. = assay: as above; conditions: application to foliage, application herbicide amount 320 g/ha
Method in brief: as §1

[2] = tested on: Beta vulgaris ssp. vulgaris; assay: as above; conditions: application to foliage, application herbicide amount 320 g/ha
Method in brief: as §1

Triticum aestivum = assay: as above; conditions: application to foliage, application herbicide amount 320 g/ha
Method in brief: as §1

Galium spurium = assay: Test Example 4: herbicidal effect by application to foliage (diluvial soil, plastic box); conditions: application to foliage, application herbicide amount 320 g/ha
Method in brief: as §1

Abutilon theophrasti = assay: as above; conditions: application to foliage, application herbicide amount 320 g/ha
Method in brief: as §1

Amaranthus retroflexus = assay: as above; conditions: application to foliage, application herbicide amount 320 g/ha
Method in brief: as §1

Apera spica-venti. = assay: as above; conditions: application to foliage, application herbicide amount 320 g/ha
Method in brief: as §1

Avena fatua = assay: as above; conditions: application to foliage, application herbicide amount 320 g/ha
Method in brief: as §1

Stellaria media = assay: as above; conditions: application to foliage, application herbicide amount 320 g/ha
Method in brief: as §1

Alopecurus myosuroides = assay: as above; conditions: application to foliage, application herbicide amount 320 g/ha
Method in brief: as §1

Lolium multiflorum Lam. = assay: as above; conditions: application to foliage, application herbicide amount 320 g/ha
Method in brief: as §1

Setaria viridis = assay: as above; conditions: application to foliage, application herbicide amount 320 g/ha
Method in brief: as §1

Digitaria ciliaris = assay: as above; conditions: application to foliage, application herbicide amount 320 g/ha
Method in brief: as §1

Veronica persica = assay: as above; conditions: application to foliage, application herbicide amount 320 g/ha
Method in brief: as §1

Chenopodium album = assay: as above; conditions: application to foliage, application herbicide amount 320 g/ha
Method in brief: as §1

[3] = tested on: Echinochloa crus-galli var. crus-galli; assay: as above; conditions: application to foliage, application herbicide amount 320 g/ha
Method in brief: as §1

Monochoria vaginalis = assay: Test Example 1: herbicidal activity, application before weed generation in submerged conditions; conditions: Application herbicide amount 320 g/ha; Seventeenth Table
Method in brief: (§2)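 Alluvial soil in Wagner pots flooded to 4 cm water depth; weed seeds sown and 2.5 leaf stage rice seedlings transplanted. Emulsion diluted in water applied to water surface on sowing day at stated g/ha. Greenhouse 25° C. to 30° C.; effects scored 0–5 by herbicidal ratio after three weeks.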

[4] = tested on: Echinochloa oryzacola Vasing.; assay: as above; conditions: Application herbicide amount 320 g/ha; Seventeenth Table
Method in brief: as §2

Scirpus juncoides = assay: as above; conditions: Application herbicide amount 320 g/ha; Seventeenth Table
Method in brief: as §2

Structure (SMILES): Cn1nnnc1NC(=O)c1ccc(C(F)(F)F)n2c(C3CCCC3)nnc12 [2-021]
- c: effect on crop, Zea mays (Zea mays): 0 (Herbicidal ratio of 5% or less (almost no effect))
- d: effect on crop, Glycine max (Glycine max): 4 (Herbicidal ratio of 70% or more and less than 90%)
- b: effect on crop, directly sowed Oryza sativa [1]: 4 (Herbicidal ratio of 70% or more and less than 90%)
- g: effect on crop, Brassica campestris L. (Brassica campestris L.): 4 (Herbicidal ratio of 70% or more and less than 90%)
- f: effect on crop, Beta vulgaris ssp. vulgaris [2]: 5 (Herbicidal ratio of 90% or more (almost completely withered))
- e: effect on crop, Triticum aestivum (Triticum aestivum): 3 (Herbicidal ratio of 40% or more and less than 70%)
- Q: herbicidal effect on Galium spurium (Galium spurium): 4 (Herbicidal ratio of 70% or more and less than 90%)
- M: herbicidal effect on Abutilon theophrasti (Abutilon theophrasti): 5 (Herbicidal ratio of 90% or more (almost completely withered))
- N: herbicidal effect on Amaranthus retroflexus (Amaranthus retroflexus): 5 (Herbicidal ratio of 90% or more (almost completely withered))
- L: herbicidal effect on Apera spica-venti. (Apera spica-venti.): 4 (Herbicidal ratio of 70% or more and less than 90%)
- I: herbicidal effect on Avena fatua (Avena fatua): 3 (Herbicidal ratio of 40% or more and less than 70%)
- P: herbicidal effect on Stellaria media (Stellaria media): 5 (Herbicidal ratio of 90% or more (almost completely withered))
- J: herbicidal effect on Alopecurus myosuroides (Alopecurus myosuroides): 3 (Herbicidal ratio of 40% or more and less than 70%)
- K: herbicidal effect on Lolium multiflorum Lam. (Lolium multiflorum Lam.): 3 (Herbicidal ratio of 40% or more and less than 70%)
- G: herbicidal effect on Setaria viridis (Setaria viridis): 5 (Herbicidal ratio of 90% or more (almost completely withered))
- F: herbicidal effect on Digitaria ciliaris (Digitaria ciliaris): 5 (Herbicidal ratio of 90% or more (almost completely withered))
- R: herbicidal effect on Veronica persica (Veronica persica): 5 (Herbicidal ratio of 90% or more (almost completely withered))
- O: herbicidal effect on Chenopodium album (Chenopodium album): 5 (Herbicidal ratio of 90% or more (almost completely withered))
- H: herbicidal effect on Echinochloa crus-galli var. crus-galli [3]: 5 (Herbicidal ratio of 90% or more (almost completely withered))
- C: Monochoria vaginalis (herbicidal effect grade) (Monochoria vaginalis): 5 (Herbicidal ratio of 90% or more (almost completely withered))
- A: Echinochloa oryzicola Vasing. (herbicidal effect grade) [4]: 5 (Herbicidal ratio of 90% or more (almost completely withered))
- B: Scirpus juncoides (herbicidal effect grade) (Scirpus juncoides): 5 (Herbicidal ratio of 90% or more (almost completely withered))

Structure (SMILES): Cn1nnnc1NC(=O)c1ccc(C(F)(F)F)n2c(C3CCOC3)nnc12 (stereo not shown) [2-022]
- c: effect on crop, Zea mays (Zea mays): 1 (Herbicidal ratio of 5% or more and less than 20%)
- d: effect on crop, Glycine max (Glycine max): 5 (Herbicidal ratio of 90% or more (almost completely withered))
- b: effect on crop, directly sowed Oryza sativa [1]: 5 (Herbicidal ratio of 90% or more (almost completely withered))
- g: effect on crop, Brassica campestris L. (Brassica campestris L.): 5 (Herbicidal ratio of 90% or more (almost completely withered))
- f: effect on crop, Beta vulgaris ssp. vulgaris [2]: 5 (Herbicidal ratio of 90% or more (almost completely withered))
- e: effect on crop, Triticum aestivum (Triticum aestivum): 3 (Herbicidal ratio of 40% or more and less than 70%)
- Q: herbicidal effect on Galium spurium (Galium spurium): 4 (Herbicidal ratio of 70% or more and less than 90%)
- M: herbicidal effect on Abutilon theophrasti (Abutilon theophrasti): 5 (Herbicidal ratio of 90% or more (almost completely withered))
- N: herbicidal effect on Amaranthus retroflexus (Amaranthus retroflexus): 5 (Herbicidal ratio of 90% or more (almost completely withered))
- L: herbicidal effect on Apera spica-venti. (Apera spica-venti.): 5 (Herbicidal ratio of 90% or more (almost completely withered))
- I: herbicidal effect on Avena fatua (Avena fatua): 4 (Herbicidal ratio of 70% or more and less than 90%)
- P: herbicidal effect on Stellaria media (Stellaria media): 5 (Herbicidal ratio of 90% or more (almost completely withered))
- J: herbicidal effect on Alopecurus myosuroides (Alopecurus myosuroides): 3 (Herbicidal ratio of 40% or more and less than 70%)
- K: herbicidal effect on Lolium multiflorum Lam. (Lolium multiflorum Lam.): 3 (Herbicidal ratio of 40% or more and less than 70%)
- G: herbicidal effect on Setaria viridis (Setaria viridis): 5 (Herbicidal ratio of 90% or more (almost completely withered))
- F: herbicidal effect on Digitaria ciliaris (Digitaria ciliaris): 4 (Herbicidal ratio of 70% or more and less than 90%)
- R: herbicidal effect on Veronica persica (Veronica persica): 5 (Herbicidal ratio of 90% or more (almost completely withered))
- O: herbicidal effect on Chenopodium album (Chenopodium album): 5 (Herbicidal ratio of 90% or more (almost completely withered))
- H: herbicidal effect on Echinochloa crus-galli var. crus-galli [3]: 5 (Herbicidal ratio of 90% or more (almost completely withered))
- C: Monochoria vaginalis (herbicidal effect grade) (Monochoria vaginalis): 5 (Herbicidal ratio of 90% or more (almost completely withered))
- A: Echinochloa oryzicola Vasing. (herbicidal effect grade) [4]: 5 (Herbicidal ratio of 90% or more (almost completely withered))
- B: Scirpus juncoides (herbicidal effect grade) (Scirpus juncoides): 5 (Herbicidal ratio of 90% or more (almost completely withered))

Structure (SMILES): CCSc1nnc2c(C(=O)Nc3nnnn3C)ccc(C(F)(F)F)n12 [2-024]
- c: effect on crop, Zea mays (Zea mays): 5 (Herbicidal ratio of 90% or more (almost completely withered))
- d: effect on crop, Glycine max (Glycine max): 5 (Herbicidal ratio of 90% or more (almost completely withered))
- b: effect on crop, directly sowed Oryza sativa [1]: 5 (Herbicidal ratio of 90% or more (almost completely withered))
- g: effect on crop, Brassica campestris L. (Brassica campestris L.): 5 (Herbicidal ratio of 90% or more (almost completely withered))
- f: effect on crop, Beta vulgaris ssp. vulgaris [2]: 5 (Herbicidal ratio of 90% or more (almost completely withered))
- e: effect on crop, Triticum aestivum (Triticum aestivum): 4 (Herbicidal ratio of 70% or more and less than 90%)
- Q: herbicidal effect on Galium spurium (Galium spurium): 4 (Herbicidal ratio of 70% or more and less than 90%)
- M: herbicidal effect on Abutilon theophrasti (Abutilon theophrasti): 5 (Herbicidal ratio of 90% or more (almost completely withered))
- N: herbicidal effect on Amaranthus retroflexus (Amaranthus retroflexus): 5 (Herbicidal ratio of 90% or more (almost completely withered))
- L: herbicidal effect on Apera spica-venti. (Apera spica-venti.): 5 (Herbicidal ratio of 90% or more (almost completely withered))
- I: herbicidal effect on Avena fatua (Avena fatua): 4 (Herbicidal ratio of 70% or more and less than 90%)
- P: herbicidal effect on Stellaria media (Stellaria media): 5 (Herbicidal ratio of 90% or more (almost completely withered))
- J: herbicidal effect on Alopecurus myosuroides (Alopecurus myosuroides): 3 (Herbicidal ratio of 40% or more and less than 70%)
- K: herbicidal effect on Lolium multiflorum Lam. (Lolium multiflorum Lam.): 4 (Herbicidal ratio of 70% or more and less than 90%)
- G: herbicidal effect on Setaria viridis (Setaria viridis): 5 (Herbicidal ratio of 90% or more (almost completely withered))
- F: herbicidal effect on Digitaria ciliaris (Digitaria ciliaris): 5 (Herbicidal ratio of 90% or more (almost completely withered))
- R: herbicidal effect on Veronica persica (Veronica persica): 5 (Herbicidal ratio of 90% or more (almost completely withered))
- O: herbicidal effect on Chenopodium album (Chenopodium album): 5 (Herbicidal ratio of 90% or more (almost completely withered))
- H: herbicidal effect on Echinochloa crus-galli var. crus-galli [3]: 5 (Herbicidal ratio of 90% or more (almost completely withered))
- C: Monochoria vaginalis (herbicidal effect grade) (Monochoria vaginalis): 5 (Herbicidal ratio of 90% or more (almost completely withered))
- A: Echinochloa oryzicola Vasing. (herbicidal effect grade) [4]: 5 (Herbicidal ratio of 90% or more (almost completely withered))
- B: Scirpus juncoides (herbicidal effect grade) (Scirpus juncoides): 5 (Herbicidal ratio of 90% or more (almost completely withered))

Structure (SMILES): CC(C)Sc1nnc2c(C(=O)Nc3nnnn3C)ccc(C(F)(F)F)n12 [2-025]
- c: effect on crop, Zea mays (Zea mays): 1 (Herbicidal ratio of 5% or more and less than 20%)
- d: effect on crop, Glycine max (Glycine max): 4 (Herbicidal ratio of 70% or more and less than 90%)
- b: effect on crop, directly sowed Oryza sativa [1]: 5 (Herbicidal ratio of 90% or more (almost completely withered))
- g: effect on crop, Brassica campestris L. (Brassica campestris L.): 4 (Herbicidal ratio of 70% or more and less than 90%)
- f: effect on crop, Beta vulgaris ssp. vulgaris [2]: 5 (Herbicidal ratio of 90% or more (almost completely withered))
- e: effect on crop, Triticum aestivum (Triticum aestivum): 3 (Herbicidal ratio of 40% or more and less than 70%)
- Q: herbicidal effect on Galium spurium (Galium spurium): 4 (Herbicidal ratio of 70% or more and less than 90%)
- M: herbicidal effect on Abutilon theophrasti (Abutilon theophrasti): 5 (Herbicidal ratio of 90% or more (almost completely withered))
- N: herbicidal effect on Amaranthus retroflexus (Amaranthus retroflexus): 5 (Herbicidal ratio of 90% or more (almost completely withered))
- L: herbicidal effect on Apera spica-venti. (Apera spica-venti.): 4 (Herbicidal ratio of 70% or more and less than 90%)
- I: herbicidal effect on Avena fatua (Avena fatua): 4 (Herbicidal ratio of 70% or more and less than 90%)
- P: herbicidal effect on Stellaria media (Stellaria media): 5 (Herbicidal ratio of 90% or more (almost completely withered))
- J: herbicidal effect on Alopecurus myosuroides (Alopecurus myosuroides): 3 (Herbicidal ratio of 40% or more and less than 70%)
- K: herbicidal effect on Lolium multiflorum Lam. (Lolium multiflorum Lam.): 3 (Herbicidal ratio of 40% or more and less than 70%)
- G: herbicidal effect on Setaria viridis (Setaria viridis): 5 (Herbicidal ratio of 90% or more (almost completely withered))
- F: herbicidal effect on Digitaria ciliaris (Digitaria ciliaris): 5 (Herbicidal ratio of 90% or more (almost completely withered))
- R: herbicidal effect on Veronica persica (Veronica persica): 5 (Herbicidal ratio of 90% or more (almost completely withered))
- O: herbicidal effect on Chenopodium album (Chenopodium album): 5 (Herbicidal ratio of 90% or more (almost completely withered))
- H: herbicidal effect on Echinochloa crus-galli var. crus-galli [3]: 5 (Herbicidal ratio of 90% or more (almost completely withered))
- C: Monochoria vaginalis (herbicidal effect grade) (Monochoria vaginalis): 5 (Herbicidal ratio of 90% or more (almost completely withered))
- A: Echinochloa oryzicola Vasing. (herbicidal effect grade) [4]: 5 (Herbicidal ratio of 90% or more (almost completely withered))
- B: Scirpus juncoides (herbicidal effect grade) (Scirpus juncoides): 5 (Herbicidal ratio of 90% or more (almost completely withered))
